Results as given in patent US11077090B2, “Compounds and compositions and uses thereof” (Sunovion Pharmaceuticals Inc., priority 2016, dated 2021).
Counter-ions that a name gives are not always drawn. Like-named read-outs stand apart in the source and are kept apart here.

System: compound-treated mice
Test: Neuropharmacological assay (SmartCube): behavioral activity signature and minimal effective dose
Type: in vivo
Settings: for minimal effective dose: Mus musculus, ip, MED = dose having 50% or more total activity; for AD: ADHD (probability of activity signature) / AG: analgesic (probability of activity signature) / AX: anxiolytic (probability of activity signature) / CE: cognitive enhancer (probability of activity signature) / DP: anti-depressant (probability of activity signature) / MS: mood stabilizer (probability of activity signature) / PS: anti-psychotic (probability of activity signature) / SD: sedative hypnotic (probability of activity signature) / UN: uncharacterized CNS activity (probability of activity signature): i.p. 15 min before test, most efficacious dose(s)
Outline: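 Mice dosed i.p. 15 min before test, compound in N-methyl-2-pyrrolidone/PEG/propylene glycol, 3 doses; video-captured behavior matched to reference-drug signatures, giving per-class probabilities at most efficacious dose. MED from doses typically 0.3–30 mpk, defined as lowest dose with ≥50% total activity.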

[1] = read-out: Potency: minimal effective dose (MED)
[2] = read-out: Potency: minimal effective dose (MED), binned

Row | SMILES | minimal effective dose [1] | AD: ADHD (probability of activity signature) | AG: analgesic (probability of activity signature) | AX: anxiolytic (probability of activity signature) | CE: cognitive enhancer (probability of activity signature) | DP: anti-depressant (probability of activity signature) | MS: mood stabilizer (probability of activity signature) | PS: anti-psychotic (probability of activity signature) | SD: sedative hypnotic (probability of activity signature) | UN: uncharacterized CNS activity (probability of activity signature) | minimal effective dose [2]
1 | CCc1ccc2c(c1)C(N)COC2.Cl (stereo not drawn) [Example 20, 6-Ethylisochroman-4-amine hydrochloride] | 3 to 10 mg/kg | + (LOQ ≤ + <5%) | ++ (5% ≤ ++ <25%) | +++ (25% ≤ +++ <50%) | ++ (5% ≤ ++ <25%) | ++ (5% ≤ ++ <25%) | + (LOQ ≤ + <5%) | +++ (25% ≤ +++ <50%) | ++ (5% ≤ ++ <25%) | ++ (5% ≤ ++ <25%) | 
2 | C[C@@H]1OC[C@@H](N)c2cc(Cl)ccc21.Cl [Example 204] |  | + (LOQ ≤ + <5%) | + (LOQ ≤ + <5%) | ++ (5% ≤ ++ <25%) | ++ (5% ≤ ++ <25%) | + (LOQ ≤ + <5%) | + (LOQ ≤ + <5%) | ++ (5% ≤ ++ <25%) | ++ (5% ≤ ++ <25%) | ++++ (50% ≤ ++++) | 3 to 10 mg/kg
3 | CC[C@@H]1OCc2ccc(F)cc2[C@H]1N [Example 182] |  | + (LOQ ≤ + <5%) | + (LOQ ≤ + <5%) | ++ (5% ≤ ++ <25%) | ++ (5% ≤ ++ <25%) | ++ (5% ≤ ++ <25%) | + (LOQ ≤ + <5%) | +++ (25% ≤ +++ <50%) | + (LOQ ≤ + <5%) | ++++ (50% ≤ ++++) | < 3 mg/kg
4 | Cl.NC1CCOCc2cccc(Cl)c21 (stereo not drawn) [Example 41] | 10 to 30 mg/kg | + (LOQ ≤ + <5%) | ++ (5% ≤ ++ <25%) | ++ (5% ≤ ++ <25%) | ++ (5% ≤ ++ <25%) | ++ (5% ≤ ++ <25%) | + (LOQ ≤ + <5%) | + (LOQ ≤ + <5%) | + (LOQ ≤ + <5%) | +++ (25% ≤ +++ <50%) | 
5 | CC1(C)OCC(N)c2ccccc21.Cl (stereo not drawn) [Example 29] | 10 to 30 mg/kg | + (LOQ ≤ + <5%) | +++ (25% ≤ +++ <50%) | ++ (5% ≤ ++ <25%) | + (LOQ ≤ + <5%) | ++ (5% ≤ ++ <25%) | + (LOQ ≤ + <5%) | + (LOQ ≤ + <5%) | + (LOQ ≤ + <5%) | + (LOQ ≤ + <5%) | 
6 | CN[C@@H]1CO[C@H](C)c2ccccc21 (relative stereo) [Example 240, cis-N,1-dimethylisochroman-4-amine hydrochloride] |  | + (LOQ ≤ + <5%) | ++ (5% ≤ ++ <25%) | ++ (5% ≤ ++ <25%) | ++ (5% ≤ ++ <25%) | ++ (5% ≤ ++ <25%) | + (LOQ ≤ + <5%) | ++ (5% ≤ ++ <25%) | ++ (5% ≤ ++ <25%) | +++ (25% ≤ +++ <50%) | 3 to 10 mg/kg
7 | Cl.NC1COCc2c(Cl)cccc21 (stereo not drawn) [Example 5] | < 3 mg/kg | + (LOQ ≤ + <5%) | ++ (5% ≤ ++ <25%) | ++ (5% ≤ ++ <25%) | ++ (5% ≤ ++ <25%) | ++ (5% ≤ ++ <25%) | + (LOQ ≤ + <5%) | ++ (5% ≤ ++ <25%) | ++ (5% ≤ ++ <25%) | +++ (25% ≤ +++ <50%) | 
8 | CCN(C)C(=O)Oc1ccc2c(c1)CO[C@H](C)[C@H]2N.Cl [Example 280] |  | + (LOQ ≤ + <5%) | + (LOQ ≤ + <5%) | + (LOQ ≤ + <5%) | ++ (5% ≤ ++ <25%) | ++ (5% ≤ ++ <25%) | ++ (5% ≤ ++ <25%) | + (LOQ ≤ + <5%) | ++ (5% ≤ ++ <25%) | + (LOQ ≤ + <5%) | 3 to 10 mg/kg
9 | COc1ccc2c(c1)[C@H](N)COC2 (single isomer, unassigned) [Example 121] | < 3 mg/kg | + (LOQ ≤ + <5%) | ++ (5% ≤ ++ <25%) | ++ (5% ≤ ++ <25%) | ++ (5% ≤ ++ <25%) | ++ (5% ≤ ++ <25%) | + (LOQ ≤ + <5%) | ++ (5% ≤ ++ <25%) | ++ (5% ≤ ++ <25%) | +++ (25% ≤ +++ <50%) | 
10 | C#CCN[C@H]1c2ccccc2CO[C@H]1C.Cl [Example 271] |  | ++ (5% ≤ ++ <25%) | + (LOQ ≤ + <5%) | ++ (5% ≤ ++ <25%) | + (LOQ ≤ + <5%) | ++ (5% ≤ ++ <25%) | +++ (25% ≤ +++ <50%) | + (LOQ ≤ + <5%) | ++ (5% ≤ ++ <25%) | ++ (5% ≤ ++ <25%) | 3 to 10 mg/kg
11 | Cc1ccc2c(c1Cl)C(N)COC2.Cl (stereo not drawn) [Example 45, 5-Chloro-6-methylisochroman-4-amine hydrochloride] | 3 to 10 mg/kg | + (LOQ ≤ + <5%) | ++ (5% ≤ ++ <25%) | +++ (25% ≤ +++ <50%) | ++ (5% ≤ ++ <25%) | ++ (5% ≤ ++ <25%) | + (LOQ ≤ + <5%) | ++ (5% ≤ ++ <25%) | ++ (5% ≤ ++ <25%) | ++++ (50% ≤ ++++) | 
12 | CN[C@H]1COCc2ccc(C)cc21 [Example 142] | 3 to 10 mg/kg | + (LOQ ≤ + <5%) | ++ (5% ≤ ++ <25%) | ++ (5% ≤ ++ <25%) | ++ (5% ≤ ++ <25%) | ++ (5% ≤ ++ <25%) | + (LOQ ≤ + <5%) | + (LOQ ≤ + <5%) | + (LOQ ≤ + <5%) | ++++ (50% ≤ ++++) | 
13 | CCc1cccc2c1C(N)COC2.Cl (stereo not drawn) [Example 53, 5-Ethylisochroman-4-amine hydrochloride] | 3 to 10 mg/kg | + (LOQ ≤ + <5%) | ++ (5% ≤ ++ <25%) | ++ (5% ≤ ++ <25%) | ++ (5% ≤ ++ <25%) | ++ (5% ≤ ++ <25%) | + (LOQ ≤ + <5%) | ++ (5% ≤ ++ <25%) | ++ (5% ≤ ++ <25%) | ++++ (50% ≤ ++++) | 
14 | COc1cccc2c1[C@H](N)[C@@H](C)OC2.Cl [Example 231] |  | + (LOQ ≤ + <5%) | ++ (5% ≤ ++ <25%) | ++ (5% ≤ ++ <25%) | ++ (5% ≤ ++ <25%) | ++ (5% ≤ ++ <25%) | + (LOQ ≤ + <5%) | + (LOQ ≤ + <5%) | + (LOQ ≤ + <5%) | +++ (25% ≤ +++ <50%) | 10 to 30 mg/kg
15 | Cl.NC1COCc2ccc3c(c21)CCCC3 (stereo not drawn) [Example 19, 2,4,7,8,9,10-Hexahydro-1H-benzo[f]isochromen-1-amine hydrochloride] | 10 to 30 mg/kg | + (LOQ ≤ + <5%) | ++ (5% ≤ ++ <25%) | +++ (25% ≤ +++ <50%) | ++ (5% ≤ ++ <25%) | + (LOQ ≤ + <5%) | + (LOQ ≤ + <5%) | ++ (5% ≤ ++ <25%) | ++ (5% ≤ ++ <25%) | +++ (25% ≤ +++ <50%) | 
